Assay results: the supplement of paper PMC10307832

What was measured:
Experiment in all cases: relative viability (nuclei count vs DMSO), 5 days (fraction); higher = more cells survive
MLN4924 + OSI-027 = compound: NS(=O)(=O)OC[C@@H]1C[C@@H](n2ccc3c(N[C@H]4CCc5ccccc54)ncnc32)C[C@@H]1O [MLN4924] + COc1cccc2cc(-c3nc([C@H]4CC[C@H](C(=O)O)CC4)n4ncnc(N)c34)[nH]c12 [OSI-027] (partner 0.5 µM)
Procedure, shortened: (§1)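 Nuclei were stained with Hoechst during a one-step fixation (final 0.05% Triton X-100, 1% formaldehyde, 1 ug/ml Hoechst) carried out 5 days after dosing, then counted on 4× images. The cells, lung cancer lines in 1536-well plates, had been dosed by pin tool the day after seeding with one drug alone or a fixed anchor-drug dose plus five library-drug doses (not always all listed) in √10 steps. Relative viability is the nuclei count in treated wells divided by that in vehicle wells, and each value is the median of duplicate plates.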

MLN4924 + Crizotinib = compound: NS(=O)(=O)OC[C@@H]1C[C@@H](n2ccc3c(N[C@H]4CCc5ccccc54)ncnc32)C[C@@H]1O [MLN4924] + C[C@@H](Oc1cc(-c2cnn(C3CCNCC3)c2)cnc1N)c1c(Cl)ccc(F)c1Cl [Crizotinib] (partner 1 µM)
Procedure, shortened: as §1

Carboplatin + Vorinostat = compound: C1CC(C1)(C(=O)O)C(=O)O.[NH2-].[NH2-].[Pt+2] [Carboplatin] + O=C(CCCCCCC(=O)Nc1ccccc1)NO [Vorinostat] (partner 1 µM)
Procedure, shortened: as §1

Cell Line	relative viability (MLN4924 + OSI-027; first compound 0.04 µM)	relative viability (MLN4924 + OSI-027; first compound 0.1265 µM)	relative viability (MLN4924 + OSI-027; first compound 0.4 µM)	relative viability (MLN4924 + OSI-027; first compound 1.265 µM)	relative viability (MLN4924 + OSI-027; first compound 4 µM)	relative viability (MLN4924 + Crizotinib; first compound 0.04 µM)	relative viability (MLN4924 + Crizotinib; first compound 0.1265 µM)	relative viability (MLN4924 + Crizotinib; first compound 0.4 µM)	relative viability (MLN4924 + Crizotinib; first compound 1.265 µM)	relative viability (MLN4924 + Crizotinib; first compound 4 µM)	relative viability (Carboplatin + Vorinostat; first compound 0.08 µM)	relative viability (Carboplatin + Vorinostat; first compound 0.253 µM)	relative viability (Carboplatin + Vorinostat; first compound 0.8 µM)	relative viability (Carboplatin + Vorinostat; first compound 2.53 µM)	relative viability (Carboplatin + Vorinostat; first compound 8 µM)
NCI-H661	0.751	0.876	0.689	0.319	0.349	0.735	0.721	0.602	0.462	0.396	0.82	0.785	0.733	0.777	0.622
LU99A	0.293	0.315	0.247	0.196	0.222	0.555	0.359	0.351	0.16	0.151	0.507	0.577	0.485	0.418	0.292
NCI-H2405	0.749	0.684	0.493	0.309	0.271	0.797	0.667	0.478	0.266	0.242	1.19	0.983	1.12	1.11	0.767
NCI-H2009	0.249	0.149	0.187	0.0664	0.0797	0.859	0.544	0.242	0.0917	0.0613	0.75	0.771	0.723	0.704	0.477
HOP-62	0.73	0.565	0.337	0.0849	0.132	0.701	0.261	0.167	0.0427	0.0866	0.654	0.662	0.635	0.664	0.542
NCI-H727	0.521	0.47	0.559	0.389	0.441	0.672	0.274	0.266	0.274	0.222	1.38	1.15	1.17	1.03	0.831
COR-L 105	0.721	0.617	0.511	0.238	0.311	0.802	0.472	0.344	0.194	0.222	0.817	0.855	0.92	0.739	0.48
PC-3 [JPC-3]	0.829	0.744	0.659	0.283	0.237	0.986	0.909	0.477	0.34	0.293	1.14	0.799	0.9	0.765	0.685
NCI-H2347	0.39	0.375	0.354	0.214	0.29	0.525	0.53	0.484	0.42	0.412	0.555	0.586	0.646	0.595	0.526
SW 1573	0.684	0.666	0.191	0.0527	0.0802	0.802	0.734	0.748	0.0862	0.0778	0.739	1.01	0.865	0.817	0.396
NCI-H838	0.364	0.241	0.224	0.154	0.166	0.635	0.535	0.235	0.154	0.139	0.733	0.705	0.728	0.626	0.608
HCC-44	0.423	0.263	0.171	0.216	0.233	0.65	0.527	0.189	0.168	0.155	1.14	1.11	1.03	0.999	0.957
HCC-78	0.416	0.349	0.399	0.27	0.236	0.394	0.451	0.739	0.159	0.172	0.472	0.403	0.386	0.378	0.431
A-427	0.356	0.239	0.214	0.173	0.171	0.4	0.239	0.243	0.149	0.182	0.865	0.854	0.864	0.864	0.829
CAL-12T	0.619	0.593	0.283	0.184	0.113	0.638	0.665	0.284	0.248	0.134	0.606	0.768	0.733	0.802	0.891
SK-MES-1	0.678	0.585	0.266	0.133	0.16	1.02	0.842	0.702	0.228	0.22	1.19	1.06	1.08	1.01	0.961
NCI-H460	0.739	0.781	0.893	0.0922	0.0324	0.886	0.929	0.689	0.0391	0.0185	0.761	0.629	0.582	0.235	0.076
ABC-1	0.7	0.511	0.323	0.196	0.248	0.901	0.29	0.132	0.0913	0.223	1.53	1.33	0.834	1.18	0.407
LK-2	0.214	0.214	0.191	0.202	0.17	0.222	0.319	0.321	0.27	0.236	0.154	0.299	0.273	0.306	0.31
NCI-H2085	0.852	0.746	0.635	0.512	0.307	0.702	0.83	0.662	0.676	0.35	0.803	0.764	0.839	0.761	0.711
NCI-H650	0.344	0.415	0.235	0.162	0.187	0.676	0.402	0.289	0.135	0.179	0.504	0.457	0.503	0.366	0.275
NCI-H2170	0.694	0.601	0.27	0.178	0.255	1.2	0.599	0.507	0.16	0.185	0.94	0.811	0.89	0.737	0.413
LC-2-ad	0.952	0.727	0.439	0.224	0.262	0.517	0.419	0.341	0.264	0.156	0.724	0.746	0.659	0.728	0.594
NCI-H322M	0.622	0.588	0.339	0.272	0.329	0.85	0.779	0.834	0.262	0.399	0.994	0.855	0.928	0.91	0.709
LCLC-97TM1	0.601	0.247	0.239	0.131	0.116	0.27	0.202	0.151	0.123	0.0984	0.753	0.749	0.661	0.504	0.654
NCI-H596	0.669	0.87		0.765	0.596	0.886	1.1	0.501	0.961	0.758	0.669	0.654	0.509	0.368	0.467
NCI-H1944	0.502	0.453	0.313	0.161	0.185	1.06	0.842	0.649	0.179	0.167	0.533	0.61	0.59	0.523	0.368
NCI-H1755	0.681	0.518	0.4	0.207	0.208	0.798	0.761	0.52	0.181	0.154	0.793	0.834	0.874	0.722	0.685
H3255	0.578	0.472	0.373	0.256	0.291	0.77	0.668	0.341	0.242	0.247	0.777	0.815	0.776	0.72	0.572
NCI-H23	0.514	0.497	0.244	0.136	0.177	0.579	0.481	0.301	0.122	0.139	0.658	0.632	0.522	0.62	0.343
